Test results: ChEMBL document CHEMBL5380858 (J Med Chem, 2023)

What was measured:
[1] = Selectivity index, ratio of CC50 for cytotoxicity against human iPSC-lung cells to EC50 for antiviral activity against SARS CoV-2 USA-WA1/2020 infected in human iPSC-lung cells; assay type: toxicity, cell-based; conditions: read-out: Ratio CC50/EC50
[2] = Selectivity index, ratio of CC50 for cytotoxicity against human Huh7.5 cells to EC50 for antiviral activity against SARS CoV-2 USA-WA1/2020 infected in human Huh7.5 cells; assay type: toxicity, cell-based; conditions: read-out: Ratio CC50/EC50
[3] = Selectivity index, ratio of CC50 for african green monkey Vero/TMPRSS2 cells to EC50 for antiviral activity against SARS CoV-2 USA-WA1/2020 infected in Vero/TMPRSS2 cells; assay type: toxicity, cell-based; conditions: read-out: Ratio CC50/EC50
[4] = Selectivity index, ratio of CC50 for cytotoxicity against human calu-3 cells to EC50 for antiviral activity against SARS CoV-2 USA-WA1/2020 infected in human Calu-3 cells; assay type: toxicity, cell-based; conditions: read-out: Ratio CC50/EC50
[5] = Cytotoxicity against african green monkey Vero/TMPRSS2 cells assessed as reduction in cell viability incubated for 38 hrs by celltiter glo assay; assay type: toxicity, cell-based; conditions: chlorocebus aethiops
[6] = system: SARS-CoV-2; test: Antiviral activity against SARS CoV-2 USA-WA1/2020 infected in human Huh7.5 cells pretreated for 30 to 60 mins followed by viral infection and measured after 48 hrs post infection by sytox green staining based immunofluorescence analysis; assay type: functional, organism-based; conditions: Severe acute respiratory syndrome coronavirus 2, USA-WA1/2020, Huh7.5; for EC90: time 2910-2940 min
[7] = system: SARS-CoV-2; test: Potency index, ratio of remdesivir EC50 to test compound EC50 for antiviral activity against SARS CoV-2 USA-WA1/2020 infected in human Calu-3 cells pretreated for 30 to 60 mins followed by viral infection and measured after 40 to 44 hrs by sytox green staining based analysis; assay type: functional, Severe acute respiratory syndrome coronavirus 2; conditions: time 2430-2700 min
[8] = Cytotoxicity against human Calu-3 cells assessed as reduction in cell viability incubated for 40 to 44 hrs by celltiter-glo assay; assay type: toxicity, cell-based; conditions: time 40-44 hrs
[9] = Cytotoxicity against human Huh7.5 cells assessed as reduction in cell viability incubated for 48 hrs by celltiter glo assay; assay type: toxicity, cell-based, Huh-7.5
[10] = system: SARS-CoV-2; test: Antiviral activity against SARS CoV-2 USA-WA1/2020 infected in human iPSC-lung cells pretreated for 30 to 60 mins followed by viral infection and measured after 24 hrs post infection by sytox green staining based analysis; assay type: functional, organism-based; conditions: Severe acute respiratory syndrome coronavirus 2, USA-WA1/2020, iPSC-Lung cell; for EC90: time 1470-1500 min
[11] = system: SARS-CoV-2; test: Antiviral activity against SARS CoV-2 USA-WA1/2020 infected in human Calu-3 cells pretreated for 30 to 60 mins followed by viral infection and measured after 40 to 44 hrs by sytox green staining based analysis; assay type: functional, organism-based, Severe acute respiratory syndrome coronavirus 2
[12] = Cytotoxicity against human iPSC-lung cells assessed as reduction in number of nuclei incubated for 24 hrs by celltiter glo assay; assay type: toxicity, cell-based, iPSC-Lung cell
[13] = system: SARS-CoV-2; test: Antiviral activity against SARS CoV-2 USA-WA1/2020 infected in Vero/TMPRSS2 cells pretreated for 30 to 60 mins followed by viral infection and measured after 38 hrs post infection by sytox green staining based immunofluorescence analysis; assay type: functional, organism-based; conditions: Severe acute respiratory syndrome coronavirus 2, USA-WA1/2020, Vero/TMPRSS2; for EC90: time 2310-2340 min
[14] = system: SARS-CoV-2; test: Antiviral activity against SARS CoV-2 USA-WA1/2020 infected in human Calu-3 cells assessed as reduction in viral RNA pretreated for 30 mins followed by viral infection and measured after 48 hrs by qRT-PCR analysis; assay type: functional, organism-based; conditions: Severe acute respiratory syndrome coronavirus 2, USA-WA1/2020, Calu-3
[15] = Cytotoxicity against human Calu-3 cells assessed as reduction in cell viability incubated for 48.5 hrs by CellTiter-Glo assay; assay type: toxicity, cell-based
[16] = Severe acute respiratory syndrome coronavirus 2, USA-WA1/2020, Calu-3
[17] = Severe acute respiratory syndrome coronavirus 2, USA-WA1/2020, Calu-3, time 2430-2700 min

Structure (SMILES) | selectivity ratio [2] | selectivity ratio [3] | selectivity ratio [4] | other results
CCCCCCCCCCCCCCCCCCOC[C@H](COP(=O)(O)OC[C@H]1O[C@@](C#N)(c2ccc3c(N)ncnn23)[C@H](O)[C@@H]1O)OCc1ccc(OC)c(F)c1 | 1170 | > 561 | 656 | selectivity ratio [1]: > 119
CCCCCCCCCCCCCCCCCCOC[C@H](COP(=O)(O)OC[C@H]1O[C@@](C#N)(c2ccc3c(N)ncnn23)[C@H](O)[C@@H]1O)OCc1ccc(C(F)(F)F)cc1 | – | – | 509 | –
CCCCCCCCCCCCCCCCCCOC[C@H](COP(=O)(O)OC[C@H]1O[C@@](C#N)(c2ccc3c(N)ncnn23)[C@H](O)[C@@H]1O)OCc1ccc(C#N)cc1 | 1970 | – | 1400 | –
CCCCCCCCCCCCCCCCOC[C@H](COP(=O)(O)OC[C@H]1O[C@@](C#N)(c2ccc3c(N)ncnn23)[C@H](O)[C@@H]1O)OCc1ccccc1 | > 763 | > 248 | 934 | –
CCCCCCCCCCCCCCCCOC[C@H](COP(=O)(O)OC[C@H]1O[C@@](C#N)(c2ccc3c(N)ncnn23)[C@H](O)[C@@H]1O)OCc1ccc(OC)c(F)c1 | 1180 | > 246 | 1480 | selectivity ratio [1]: > 153
CCCCCCCC/C=C\CCCCCCCCOC[C@H](COP(=O)(O)OC[C@H]1O[C@@](C#N)(c2ccc3c(N)ncnn23)[C@H](O)[C@@H]1O)OCc1ccc(OC)c(F)c1 | > 1850 | > 333 | 839 | selectivity ratio [1]: > 243; CC50 at 38 h [5]: > 100 µM; EC50 [6]: 0.054 µM; EC90 [6]: 0.095 µM; Ratio EC50 [7]: 3.3; CC50 [8]: 58.7 µM; CC50 at 48 h [9]: > 100 µM; EC50 [10]: 0.082 µM; EC90 [10]: 0.175 µM; EC50 [11, 16]: 0.07 µM; EC90 [11, 17]: 0.149 µM; CC50 at 24 h [12]: > 20 µM; EC50 [13]: 0.3 µM; EC90 [13]: 0.554 µM
CCCCCCCCCCCCCCCCCCOC[C@H](COP(=O)(O)OC[C@H]1O[C@@](C#N)(c2ccc3c(N)ncnn23)[C@H](O)[C@@H]1O)OCCC1CCCCC1 | 758 | – | 685 | –
CCCCCCCCCCCCCCCCCCOC[C@H](COP(=O)(O)OC[C@H]1O[C@@](C#N)(c2ccc3c(N)ncnn23)[C@H](O)[C@@H]1O)OCc1ccccc1C#N | > 980 | > 337 | 909 | CC50 at 38 h [5]: > 1010 µM; EC50 [13]: 0.296 µM
CCCCCCCCCCCCCCCCCCOC[C@H](COP(=O)(O)OC[C@H]1O[C@@](C#N)(c2ccc3c(N)ncnn23)[C@H](O)[C@@H]1O)OCc1cccc(C#N)c1 | 2070 | – | 1810 | –
CCCCCCCC/C=C\CCCCCCCCOC[C@H](COP(=O)(O)OC[C@H]1O[C@@](C#N)(c2ccc3c(N)ncnn23)[C@H](O)[C@@H]1O)OCc1ccccc1 | > 917 | > 341 | 410 | selectivity ratio [1]: > 74; CC50 at 38 h [5]: > 100 µM; EC50 [6]: 0.109 µM; EC90 [6]: 0.224 µM; CC50 [8]: 79.2 µM; CC50 at 48 h [9]: > 100 µM; EC50 [10]: 0.267 µM; EC90 [10]: 0.555 µM; EC50 [11, 16]: 0.193 µM; EC90 [11, 17]: 0.324 µM; CC50 at 24 h [12]: > 20 µM; EC50 [13]: 0.293 µM; EC90 [13]: 0.57 µM
CCCCCCCCCCCCCCCCCCOC[C@H](COP(=O)(O)OC[C@H]1O[C@@](C#N)(c2ccc3c(N)ncnn23)[C@H](O)[C@@H]1O)OCc1cccc(C(F)(F)F)c1 | – | – | 418 | –
CCCCCCCCCCCCCCCCCCOC[C@H](COP(=O)(O)OC[C@H]1O[C@@](C#N)(c2ccc3c(N)ncnn23)[C@H](O)[C@@H]1O)OCCCCCCCC | > 177 | > 129 | > 255 | EC50 ([11]; calu-3): 0.16 µM; EC90 ([11]; time 2430-2700 min): 0.625 µM
CCCCCCCCCCCCCCOC[C@H](COP(=O)(O)OC[C@H]1O[C@@](C#N)(c2ccc3c(N)ncnn23)[C@H](O)[C@@H]1O)OCc1ccccc1 | > 636 | > 110 | > 469 | –
CCCCCCCCCCCCCCCCCCOC[C@H](COP(=O)(O)OC[C@H]1O[C@@](C#N)(c2ccc3c(N)ncnn23)[C@H](O)[C@@H]1O)OCc1cccc(F)c1 | 392 | > 369 | 422 | –
N#C[C@@]1(c2ccc3c(N)ncnn23)O[C@H](CO)[C@@H](O)[C@H]1O [GS-441524] | – | – | > 666 | EC50 [14]: 0.15 µM; EC90 ([14]; time 48.5 hrs): 0.18 µM; CC50 at 48.5 h [15]: > 100 µM
